# Measured values published in US7592326B2, “Method for stimulating the immune, inflammatory or neuroprotective response” (priority 2004, dated 2009).
# Columns and labels:
# [1] = tested on: human basophils; assay: IgE-dependent histamine release by human basophils; format: cell-based; conditions: 15 minutes pretreatment
# Experimental: (§1) Studies investigating the effect of the TBDMS-cGpGp analog on IgE-dependent IL-4 and histamine secretion induced by cross-linking were then performed. […] The inhibition of IL-4 was evident using the TBDMS-cGpGp analog as well as the cGpAp analog. Note that IgE-mediated histamine release is 90% complete within 20 minutes after stimulation- histamine is preformed and store in cytoplasmic granules. Although IL-4 is not preformed, it is rapidly generated denovo and secreted within 3-6 hours. In performing these experiments, a standard protocol for testing various anti-allergic drugs was used.
# Specifically, the basophils were pretreated 15 minutes with the analogs before adding anti-IgE antibody for activation. Culture supernatants were analyzed for histamine and IL-4 three hours later. Thus, unlike the IL-13 induced by IL-3 during an 18-20 h culture, the release of histamine and IL-4 are far more rapid under IgE crosslinking conditions. It may be that inhibition would be greater if a greater pre-incubation time was performed with the analogs. Additional experiments will test different pre-incubation times to determine whether greater inhibition is observed. It is important to note that neither analog induced histamine release or IL-4 when used alone at the 50 uM concentration. […]
# [2] = tested on: human basophils; assay: IgE-dependent IL-4 secretion by human basophils; format: cell-based
# Experimental: as §1
# Specifically, the basophils were pretreated 15 minutes with the analogs before adding anti-IgE antibody for activation. Culture supernatants were analyzed for histamine and IL-4 three hours later. Thus, unlike the IL-13 induced by IL-3 during an 18-20 h culture, the release of histamine and IL-4 are far more rapid under IgE crosslinking conditions. It may be that inhibition would be greater if a greater pre-incubation time was performed with the analogs. Additional experiments will test different pre-incubation times to determine whether greater inhibition is observed. It is important to note that neither analog induced histamine release or IL-4 when used alone at the 50 uM concentration. T this is additional evidence that the inhibitory effect in not due to toxicity- histamine would most likely be released if the analogs were causing cell lysis.
# IL-4 measurements were made in an experiment where the cyclic dinucleotide analogs were tested in a 1 hour pretreatment of basophils before activating with anti-IgE antibody. The control release to anti-IgE antibody was 262 pg/106 basophils (a relatively robust response being that cell responsiveness decreases the longer the wait before activating). Both the TBMDS-cGpGp and cGpAp analogs produced ˜30% inhibition at the 50μM concentration. […] It may be that overnight incubation with cyclic dinucleotide (similar to the IL-13 inhibition studies) would show even greater inhibition.
# [3] = tested on: pDC; assay: Cytokine secretion by pDC treated with TBDMS analog; format: cell-based, human
# Experimental: Whether or not TBDMS would directly induce (or affect CpG-dependent) cytokine (IL-6, TNF-alpha, IL-10) secretion was then tested. […] IL-6 was not measured. […] Cells from one of the 3 subjects did secrete 100-200 pg/10^6 cells more TNF-alpha than the ˜400 secreted in medium alone. The same pattern was seen using these cells when the combination of CpG and TMDMS was used. However, these effects were not evident for the other two pDC preparations.
# [4] = tested on: basophils; assay: SOCS expression in basophils (real-time PCR); format: cell-based, human
# Experimental: Whether or not cyclic dinucleotides affected induction of SOCS (Suppresser Of Cytokine Synthesis) expression in basophils treated with CDN's was then tested. […] Cells were treated for 18 h, total RNA isolated, and RT-PCR performed for SOCS-1, SOCS-3, and the HPRT housekeeping gene. The fact that cGpGp also induces SOCS-1 may explain why some inhibition of IL-3-induced IL-13 secretion is observed with this cyclic dinucleotide analog. […] In the current IL-13 assay, the cyclic dinucleotide is added simultaneously with IL-3. The TBDMS-cGpGp likely induces SOCS-1 expression faster and thus accounts for greater inhibition of IL-13. […] While modest inhibitory activity with cGpGp was observed, evidence that cGpGp induces SOCS-1 and sometimes better than TBDMS-cGpGp at this particular time point was observed. These differences might be explained by kinetics and it may be that SOCS gene expression would be higher following TBDMS-cGpGp treatment when examined at an earlier time point.
# [5] = tested on: human basophils; assay: IL-3 dependent IL-13 secretion by human basophils; format: cell-based; conditions: for inhibition of IL-13 induced by IL-3: 18-20 h culture, FIG. 18A
# [6] = tested on: Primary hippocampal cells; assay: Staurosporine-induced cell death in primary hippocampal cultures (CellTiter 96 AQueous Assay); format: cell-based; conditions: 100 nM, 22 h
# Experimental: To assess the role of cyclic dinucleotides in modulating the neurological response, i.e., prevent cell death induced by staurosporine (STS) in primary hippocampal nerve cells, the effects of c-di-GMP on hippocampal cells was analyzed. Primary hippocampal cells were prepared according to previously described methods (Pereira et al., 1993). Briefly, the hippocampi were dissected from the brain of 18-day-old fetal rats. Following enzymatic and mechanical dissociation, cells were plated at a density of 100,000 cells/well in 96-well plates pre-coated with matrigel. At the 7th day after plating, cultures were subjected to one of the following treatments: (i) vehicle (24 h), (ii) STS (100 nM, 22 h), (iii) c-di-GMP (24 h), (iv) c-di-GMP (2 h) followed by c-di-GMP -plus-STS (22 h), (v) c-di-GMP -plus-STS (24 h), or (vi) STS (2 h) followed by c-di-GMP -plus-STS (22 h). At the end of the treatments, cell viability was analyzed using CellTiter 96® AQueous Assay (Promega). The assay involves the spectrophotometric measurement (at 490 nm) of the mitochondrial conversion of a tetrazolium dye into a colorful product. The absorbance of the assay correlates with the number of metabolically active cells.
# [7] = Solubility
# [8] = format: in vitro ADME, human
# Experimental: Commercially supplied pooled human serum (100 uL) (Cambrex Bio Science Walkersville, Inc.) was diluted in ion-exchanged water. An aliquot of the resulting human serum solution was subjected to HPLC analysis (conditions: COSMOSIL 5C18-AR-II column (4.6×200 mm); buffer A; buffer B, 80% acetonitrile in water; gradient, 0-10 min A 100%, 10-60 min A:B=100:0 to A:B=40:60 in 50 min; detection 254 nm, flow rate, 1.0 mL/min, temperature 40° C.). Separately, a 100 uM of c-di-GMP solution in human serum was prepared by adding 100 uL of a 500 uM c-di-GMP aqueous solution to a mixture of 390 uL of human serum and 10 uL of 40 mM 2-methylbenzimidazole (an internal standard for estimating the extent of decomposition of c-di-GMP) in methanol. An aliquot of the test solution was diluted immediately after the preparation solution and then heated at 100° C. for 5 min to quench activity of enzymes. The resulting test sample was subjected to HPLC analysis after 24 h treatment. Peaks that appeared in both analyses were compared. Results are based on 3 independent experiments.
# [9] = tested on: lung leukocytes; assay: Lung leukocyte accumulation in Klebsiella-infected mice (lung digest, flow cytometry); format: in vivo, Balb/c mice
# [10] = 50 uM, 15 minutes pretreatment, supernatants three hours later, FIG. 18B
# [11] = 50μM, 1 hour pretreatment, control release 262 pg/106 basophils
smiles,measurement,setting,value
"CC(C)(C)[Si](C)(C)O[C@@H]1[C@@H]2OP(=O)(O)OC[C@H]3O[C@@H](n4cnc5c(=O)[nH]c(N)nc54)[C@H](O)[C@@H]3OP(=O)(O)OC[C@H]2O[C@H]1n1cnc2c(=O)[nH]c(N)nc21 [TBDMS-cGpGp, 2′-O-TBDMS-c-di-GMP]",effect on IgE-dependent histamine release,[1],essentially no effect
same,inhibition of IgE-dependent IL-4,[2]; [10],30%
same,inhibition of IgE-dependent IL-4,[2]; [11],~30%
same,effect on TNF-alpha and IL-10,[3]; alone or with CpG,little to no effect
same,TNF-alpha secreted above the ˜400 in medium alone,[3]; cells from one of the 3 subjects,100-200 pg/10^6 cells
same,IL-10 secretion,"[3]; used by itself, n=3",did not cause IL-10 secretion
same,time of SOCS mRNA peak,[4],~12 h
same,SOC-3 mRNA,[4]; 18 h treatment,induced
same,SOCS-1 mRNA,[4]; 18 h treatment,induced
same,inhibition of IL-13 induced by IL-3,[5]; 10 micromolar,30-40%
same,inhibition of IL-13 induced by IL-3,"[5]; 50 micromolar, at least 5 independent experiments",70-80%
Nc1nc2c(ncn2[C@@H]2O[C@@H]3COP(=O)(O)O[C@H]4[C@@H](O)[C@H](n5cnc6c(=O)[nH]cnc65)O[C@@H]4COP(=O)(O)O[C@H]3[C@H]2O)c(=O)[nH]1 [cGpIp],enhancement of IL-13 induced by IL-3,[5]; two experiments,25%
"CN[C@@H]1C[C@H]2O[C@@](C)([C@@H]1OC)n1c3ccccc3c3c4c(c5c6ccccc6n2c5c31)C(=O)NC4 [STS, staurosporine, reference compound]",cell death in primary hippocampal cultures,[6],caused significant cell death
"Cc1nc2ccccc2[nH]1 [2-methylbenzimidazole, reference compound]","solubility in water, methanol, and acetonitrile",[7],fairly soluble
same,stability in human serum,[8],stable
"Nc1nc2c(ncn2[C@@H]2O[C@@H]3COP(=O)(O)O[C@H]3[C@H]2O)c(=O)[nH]1 [CTL, reference compound]",Total number lung cells,"[9]; i.n. pretreatment 48 and 24 hr prior, lung digests 48 hrs after K. pneumoniae (kp), uninfected 2.7 × 10^7",3.57 × 10^7
same,"αβTcr^+, CD69^+","[9]; lung digests 48 hrs after kp, uninfected 0.33 × 10^5",2.7 × 10^5
same,"DX5^+, CD69^+","[9]; lung digests 48 hrs after kp, uninfected 0.78 × 10^5",2.7 × 10^5
same,PMN,"[9]; lung digests 48 hrs after kp, uninfected 0.8 × 10^6",7.35 × 10^6
same,DX5^+ (NK),"[9]; lung digests 48 hrs after kp, uninfected 1.3 × 10^6",2.5 × 10^6
same,"DX5^+, αβγδTcr^+(NK T^+)","[9]; lung digests 48 hrs after kp, uninfected 1.6 × 10^5",4.7 × 10^5
same,Mono/Macrophage,"[9]; lung digests 48 hrs after kp, uninfected 2.3 × 10^7",2.88 × 10^7
same,αβTcr^+,"[9]; lung digests 48 hrs after kp, uninfected 2.6 × 10^6",3.38 × 10^6
Nc1nc2c(ncn2[C@@H]2O[C@@H]3COP(=O)(O)O[C@H]4[C@@H](O)[C@H](n5cnc6c(N)ncnc65)O[C@@H]4COP(=O)(O)O[C@H]3[C@H]2O)c(=O)[nH]1 [cGpAp],inhibition of IgE-dependent IL-4,[2]; [10],evident
same,inhibition of IgE-dependent IL-4,[2]; [11],~30%
same,effect on IL-13 induced by IL-3,[5]; under the conditions tested,little effect
